Test results reported in PMC8843100, “Development of newly synthesised quinazolinone-based CDK2 inhibitors with potent efficacy against melanoma” (Journal of Enzyme Inhibition and Medicinal Chemistry, 2022).

Experiments:
[1] = system: A498; test: NCI-60 single dose screen, sulforhodamine B; format: cell-based, human; conditions: Renal cancer A498; single dose 10^−5 M
Method: (§1) In this research, all of the newly synthesised quinazolinones were subjected to in vitro anticancer screening by the National Cancer Institute (USA) against 60 different human cell lines including leukaemia, non-small cell lung cancer, colon cancer, CNS cancer, melanoma, ovarian cancer, renal cancer, prostate cancer, and breast cancer. The tested compounds were evaluated at a single dose (10^−5 M). […] Regarding the benzenesulfonamide counterparts, the introduction of an electron-withdrawing group on the benzenesulfonamide moiety increased the inhibitory activity on the glioblastoma cell line SNB-75 as depicted by the chloro derivative 5c (GI% = 63.09) which was higher than that of the unsubstituted derivative 5a (GI% = 40.06) and the methyl derivative 5b (GI% = 33.03).
(§2) 1. Cytotoxicity screening against a panel of 60 human tumor cell lines
(§3) All the compounds were selected for NCI-60 Human Tumor Cell Lines Screen by the Developmental Therapeutics Program (DTP) at the National Cancer Institute (NCI), Maryland, USA. The operation of this screen utilizes 60 different human tumor cell lines, representing leukemia, non-small-cell lung cancer, colon cancer, CNS cancer, melanoma, ovarian cancer, renal cancer, prostate cancer and breas t cancer.
(§4) The compounds were supplied as dry powder and a single concentration is tested in all 60 cell lines at a single dose of 10 µM solution in dimethyl sulfoxide (DMSO) using Sulforhodamine B assay. Briefly, cells are seeded in 96 well plates at an appropriate density and incubated for 1 day. After 1 day, some of the plates are processed to determine the density time zero. To the remaining plates, compounds are added at 10 µM concentration. Plates are incubated a further 2 days, then fixed and staine d with sulphorhodamine B. Growth inhibition is calculated relative to cells without drug treatment and the time zero control. The use of a time zero control allows the determination of cell kill as well as net growth inhibition. […]

[2] = system: BT-549; test: NCI-60 single dose screen, sulforhodamine B; format: cell-based, human; conditions: Breast cancer BT-549; single dose 10^−5 M
Method: as §1, §2, §3, §4

[3] = system: COLO 205; test: NCI-60 single dose screen, sulforhodamine B; format: cell-based, human; conditions: Colon cancer COLO 205; single dose 10^−5 M
Method: as §1, §2, §3, §4

[4] = system: DU-145; test: NCI-60 single dose screen, sulforhodamine B; format: cell-based, human; conditions: Prostate cancer DU-145; single dose 10^−5 M
Method: as §1, §2, §3, §4

[5] = system: EKVX; test: NCI-60 single dose screen, sulforhodamine B; format: cell-based, human; conditions: Non-small cell lung cancer EKVX; single dose 10^−5 M
Method: as §1, §2, §3, §4

[6] = system: HCT-116; test: NCI-60 single dose screen, sulforhodamine B; format: cell-based, human; conditions: Colon cancer HCT-116; single dose 10^−5 M
Method: as §1, §2, §3, §4

[7] = system: HOP-62; test: NCI-60 single dose screen, sulforhodamine B; format: cell-based, human; conditions: Non-small cell lung cancer HOP-62; single dose 10^−5 M
Method: as §1, §2, §3, §4

[8] = system: HS 578T; test: NCI-60 single dose screen, sulforhodamine B; format: cell-based, human; conditions: Breast cancer HS 578T; single dose 10^−5 M
Method: as §1, §2, §3, §4

[9] = system: HT29; test: NCI-60 single dose screen, sulforhodamine B; format: cell-based, human; conditions: Colon cancer HT29; single dose 10^−5 M
Method: as §1, §2, §3, §4

[10] = system: K-562; test: NCI-60 single dose screen, sulforhodamine B; format: cell-based, human; conditions: Leukaemia K-562; single dose 10^−5 M
Method: as §1, §2, §3, §4

[11] = system: KM12; test: NCI-60 single dose screen, sulforhodamine B; format: cell-based, human; conditions: Colon cancer KM12; single dose 10^−5 M
Method: as §1, §2, §3, §4

[12] = system: LOX IMVI; test: NCI-60 single dose screen, sulforhodamine B; format: cell-based, human; conditions: Melanoma LOX IMVI; single dose 10^−5 M
Method: as §1, §2, §3, §4

[13] = system: MDA-MB-231/ATCC; test: NCI-60 single dose screen, sulforhodamine B; format: cell-based, human; conditions: Breast cancer MDA-MB-231/ATCC; single dose 10^−5 M
Method: as §1, §2, §3, §4

[14] = system: MOLT-4; test: NCI-60 single dose screen, sulforhodamine B; format: cell-based, human; conditions: Leukaemia MOLT-4; single dose 10^−5 M
Method: as §1, §2, §3, §4

[15] = system: NCI-H226; test: NCI-60 single dose screen, sulforhodamine B; format: cell-based, human; conditions: Non-small cell lung cancer NCI-H226; single dose 10^−5 M
Method: as §1, §2, §3, §4

[16] = system: NCI-H322M; test: NCI-60 single dose screen, sulforhodamine B; format: cell-based, human; conditions: Non-small cell lung cancer NCI-H322M; single dose 10^−5 M
Method: as §1, §2, §3, §4

[17] = system: NCI-H460; test: NCI-60 single dose screen, sulforhodamine B; format: cell-based, human; conditions: Non-small cell lung cancer NCI-H460; single dose 10^−5 M
Method: as §1, §2, §3, §4

[18] = system: NCI-H522; test: NCI-60 single dose screen, sulforhodamine B; format: cell-based, human; conditions: Non-small cell lung cancer NCI-H522; single dose 10^−5 M
Method: as §1, §2, §3, §4

[19] = system: OVCAR-3; test: NCI-60 single dose screen, sulforhodamine B; format: cell-based, human; conditions: Ovarian cancer OVCAR-3; single dose 10^−5 M
Method: as §1, §2, §3, §4

[20] = system: OVCAR-5; test: NCI-60 single dose screen, sulforhodamine B; format: cell-based, human; conditions: Ovarian cancer OVCAR-5; single dose 10^−5 M
Method: as §1, §2, §3, §4

[21] = system: SF-539; test: NCI-60 single dose screen, sulforhodamine B; format: cell-based, human; conditions: CNS cancer SF-539; single dose 10^−5 M
Method: as §1, §2, §3, §4

[22] = system: SK-MEL-28; test: NCI-60 single dose screen, sulforhodamine B; format: cell-based, human; conditions: Melanoma SK-MEL-28; single dose 10^−5 M
Method: as §1, §2, §3, §4

[23] = system: SNB-19; test: NCI-60 single dose screen, sulforhodamine B; format: cell-based, human; conditions: CNS cancer SNB-19; single dose 10^−5 M
Method: as §1, §2, §3, §4

[24] = system: SNB-75; test: NCI-60 single dose screen, sulforhodamine B; format: cell-based, human; conditions: CNS cancer SNB-75; single dose 10^−5 M
Method: as §1, §2, §3, §4

[25] = system: SR; test: NCI-60 single dose screen, sulforhodamine B; format: cell-based, human; conditions: Leukaemia SR; single dose 10^−5 M
Method: as §1, §2, §3, §4

[26] = system: SW-620; test: NCI-60 single dose screen, sulforhodamine B; format: cell-based, human; conditions: Colon cancer SW-620; single dose 10^−5 M
Method: as §1, §2, §3, §4

[27] = system: TK-10; test: NCI-60 single dose screen, sulforhodamine B; format: cell-based, human; conditions: Renal cancer TK-10; single dose 10^−5 M
Method: as §1, §2, §3, §4

[28] = system: U251; test: NCI-60 single dose screen, sulforhodamine B; format: cell-based, human; conditions: CNS cancer U251; single dose 10^−5 M
Method: as §1, §2, §3, §4

[29] = system: UACC-257; test: NCI-60 single dose screen, sulforhodamine B; format: cell-based, human; conditions: Melanoma UACC-257; single dose 10^−5 M
Method: as §1, §2, §3, §4

[30] = system: UACC-62; test: NCI-60 single dose screen, sulforhodamine B; format: cell-based, human; conditions: Melanoma UACC-62; single dose 10^−5 M
Method: as §1, §2, §3, §4

[31] = system: UO-31; test: NCI-60 single dose screen, sulforhodamine B; format: cell-based, human; conditions: Renal cancer UO-31; single dose 10^−5 M
Method: as §1, §2, §3, §4

Row | SMILES | GI% at 10^−5 M [1] | GI% at 10^−5 M [2] | GI% at 10^−5 M [3] | GI% at 10^−5 M [4] | GI% at 10^−5 M [5] [%] | GI% at 10^−5 M [6] | GI% at 10^−5 M [7] | GI% at 10^−5 M [8] [%] | GI% at 10^−5 M [9] | GI% at 10^−5 M [10] | GI% at 10^−5 M [11] | GI% at 10^−5 M [12] | GI% at 10^−5 M [13] [%] | GI% at 10^−5 M [14] | GI% at 10^−5 M [15] | GI% at 10^−5 M [16] | GI% at 10^−5 M [17] | GI% at 10^−5 M [18] [%] | GI% at 10^−5 M [19] | GI% at 10^−5 M [20] | other results
1 | O=C(CNn1c(COc2ccccc2)nc2ccccc2c1=O)Nc1ccccc1 [Compound 4a, 2-((4-oxo-2-(phenoxymethyl)quinazolin-3(4H)-yl)amino)-N-phenylacetamide] | – (– means GI < 10%) | – (– means GI < 10%) | – (– means GI < 10%) | – (– means GI < 10%) | 14.38 | – (– means GI < 10%) | 13.59% | 11.86 | – (– means GI < 10%) | – (– means GI < 10%) | – (– means GI < 10%) | – (– means GI < 10%) | 18.56 | – (– means GI < 10%) | – (– means GI < 10%) | – (– means GI < 10%) | – (– means GI < 10%) | 13.74 | – (– means GI < 10%) | – (– means GI < 10%) | GI% at 10^−5 M [21]: – (– means GI < 10%); GI% at 10^−5 M [22]: – (– means GI < 10%); GI% at 10^−5 M [23]: – (– means GI < 10%); GI% at 10^−5 M [24]: 62.34%; GI% at 10^−5 M [25]: – (– means GI < 10%); GI% at 10^−5 M [26]: – (– means GI < 10%); GI% at 10^−5 M [27]: – (– means GI < 10%); GI% at 10^−5 M [28]: – (– means GI < 10%); GI% at 10^−5 M [29]: – (– means GI < 10%); GI% at 10^−5 M [30]: – (– means GI < 10%); GI% at 10^−5 M [31]: 21.57%; melting point: 135 to 137 °C
2 | CN1CCN(CC(=O)Nn2c(COc3ccccc3)nc3ccccc3c2=O)CC1 [Compound 8a, 2–(4-methylpiperazin-1-yl)-N-(4-oxo-2-(phenoxymethyl)quinazolin-3(4H)-yl)acetamide] | 18.24% | – (– means GI < 10%) | 15.89% | – (– means GI < 10%) | 13.93 | 18.15% | – (– means GI < 10%) | 13.94 | 26.89% | 67.8% | 55.03% | 14.73% | 21.65 | 11.86% | 15.39% | – (– means GI < 10%) | – (– means GI < 10%) | 24.6 | – (– means GI < 10%) | – (– means GI < 10%) | GI% at 10^−5 M [21]: 11.37%; GI% at 10^−5 M [22]: – (– means GI < 10%); GI% at 10^−5 M [23]: 13.65%; GI% at 10^−5 M [24]: 27.37%; GI% at 10^−5 M [25]: 69.55%; GI% at 10^−5 M [26]: 42.80%; GI% at 10^−5 M [27]: – (– means GI < 10%); GI% at 10^−5 M [28]: 18.55%; GI% at 10^−5 M [29]: – (– means GI < 10%); GI% at 10^−5 M [30]: 30.69%; GI% at 10^−5 M [31]: 29.32%; melting point: 158 to 160 °C
